In patent US10781184B2, “Substituted benzazinones as antibacterial compounds” (GlaxoSmithKline Intellectual Property Development Limited, priority 2015, dated 2020):
Converted amounts (≈) assume the structure as drawn.

What was measured:
Assay in all cases: Minimum Inhibitory Concentration Assay (broth microdilution, CLSI)
Type in all cases: cell-based
K. pneumoniae 1161486 = conditions: Klebsiella pneumoniae; strain 1161486, broth microdilution; read-out: K. pneumoniae 1161486 MIC
Procedure: (§1) Methods for dilution Antimicrobial Susceptibility TestS for Bacteria that Grow Aerobically; Approved Standard-Ninth Edition; M7-A9, Vol. 32 No. 2, Clinical and Laboratory Standards Institute, Wayne, Pa.; January 2012.
(§2) Performance Standards for Antimicrobial Susceptibility Testing; Twenty-Second Informational Supplement; M100-S22 Vol. 32 No. 3; Clinical and Laboratory Standards Institute, Wayne, Pa., January 2012.
(§3) Broth microdilution was performed in accordance with the CLSI recommended procedures for aerobic bacteria [CLSI, 2012].
(§4) Comparator compound stock solutions were prepared as recommended by CLSI [CLSI, 2012]. The stock solutions of novel GSK compounds were prepared at 512 mcg/mL by dissolving the compounds in dimethyl sulfoxide (DMSO) and diluting 1:10 with sterile water. The 512 mcg/mL stock was further serially diluted in the recommended broth media for the organisms being tested. Final DMSO concentration in test wells was less than 1%.
(§5) Microtitre plates were prepared using the Microlab STAR™ (Hamilton Co., Reno, Nev.) to add media (50 μL) and the Microlab AT Plus system (Hamilton Co., Reno, Nev.) to serially dilute the compounds (final concentration range 0.125 to 128 mcg/mL) and to add inoculum. A positive growth control well containing medium and the test isolate was included on each microtitre plate. Ten microliters of the test medium from the positive growth control well was plated to determine the purity of each test isolate. A microtitre mirror reader (Cooke Instruments, Ltd., England) was used to assist in determining the microdilution MIC endpoints. The MIC was determined as the lowest concentration of compound that inhibited visible growth of the organism.

P. aeruginosa PA01 = conditions: Pseudomonas aeruginosa; strain PA01, broth microdilution; read-out: P. aeruginosa PA01 MIC
Procedure: as §1, §2, §3, §4, §5

E. coli 7623 = conditions: Escherichia coli; strain 7623, broth microdilution; read-out: E. coli 7623 MIC
Procedure: as §1, §2, §3, §4, §5

Row | Compound | MIC (K. pneumoniae 1161486) [µg/mL] | MIC (P. aeruginosa PA01) [µg/mL] | MIC (E. coli 7623) [µg/mL]
1 | C[C@@](CCn1cnc2cc(-c3ccc(CN4CCOCC4)cc3)ccc2c1=O)(C(=O)NO)S(C)(=O)=O [Example 35, (2R)—N-hydroxy-2-methanesulfonyl-2-methyl-4-(7-{4-[(morpholin-4-yl)methyl]phenyl}-4-oxo-3,4-dihydroquinazolin-3-yl)butanamide] | 0.5 (≈ 0.972 µM) | 1 (≈ 1.94 µM) | 0.125 (≈ 0.243 µM)
2 | C[C@@](CCn1cnc2cc(-c3ccc(CN4CCOCC4)cc3F)ccc2c1=O)(C(=O)NO)S(C)(=O)=O [Example 37, (2R)-4-(7-{2-fluoro-4-[(morpholin-4-yl)methyl]phenyl}-4-oxo-3,4-dihydroquinazolin-3-yl)-N-hydroxy-2-methanesulfonyl-2-methylbutanamide] | 0.5 (≈ 0.939 µM) | 2 (≈ 3.76 µM) | 0.063 (≈ 0.118 µM)
3 | COCCN(C)Cc1ccc(-c2ccc3c(=O)n(CC[C@](C)(C(=O)NO)S(C)(=O)=O)cnc3c2)c(F)c1F [Example 38, (2R)-4-[7-(2,3-difluoro-4-{[(2-methoxyethyl)(methyl)amino]methyl}phenyl)-4-oxo-3,4-dihydroquinazolin-3-yl]-N-hydroxy-2-methanesulfonyl-2-methylbutanamide] | 0.5 (≈ 0.905 µM) | 4 (≈ 7.24 µM) | 0.125 (≈ 0.226 µM)
4 | CN(Cc1ccc(-c2ccc3c(=O)n(CC[C@](C)(C(=O)NO)S(C)(=O)=O)cnc3c2)cc1F)C1CC1 [Example 39, (2R)-4-[7-(4-{[cyclopropyl(methyl)amino]methyl}-3-fluorophenyl)-4-oxo-3,4-dihydroquinazolin-3-yl]-N-hydroxy-2-methanesulfonyl-2-methylbutanamide] | 0.5 (≈ 0.968 µM) | 4 (≈ 7.74 µM) | < 0.03
5 | C[C@@](CCn1cnc2cc(-c3ccc(CN4CC(F)(F)C4)cc3F)ccc2c1=O)(C(=O)NO)S(C)(=O)=O [Example 40, (2R)-4-(7-{4-[(3,3-difluoroazetidin-1-yl)methyl]-2-fluorophenyl}-4-oxo-3,4-dihydroquinazolin-3-yl)-N-hydroxy-2-methanesulfonyl-2-methylbutanamide] | 0.5 (≈ 0.928 µM) | 4 (≈ 7.43 µM) | 0.5 (≈ 0.928 µM)
6 | C[C@@](CCn1cnc2cc(-c3ccc(CNC4CC4)cc3F)ccc2c1=O)(C(=O)NO)S(C)(=O)=O [Example 41, (2R)-4-(7-{4-[(cyclopropylamino)methyl]-2-fluorophenyl}-4-oxo-3,4-dihydroquinazolin-3-yl)-N-hydroxy-2-methanesulfonyl-2-methylbutanamide] | 2 (≈ 3.98 µM) | 2 (≈ 3.98 µM) | 0.125 (≈ 0.249 µM)
7 | C[C@@](CCn1cnc2cc(-c3ccc(CCN4CCOCC4)cc3F)ccc2c1=O)(C(=O)NO)S(C)(=O)=O [Example 43, (2R)-4-(7-{2-fluoro-4-[2-(morpholin-4-yl)ethyl]phenyl}-4-oxo-3,4-dihydroquinazolin-3-yl)-N-hydroxy-2-methanesulfonyl-2-methylbutanamide] | 0.5 (≈ 0.915 µM) | 2 (≈ 3.66 µM) | 0.25 (≈ 0.457 µM)
8 | C[C@@](CCn1cnc2cc(-c3ccc(CCO)cc3)ccc2c1=O)(C(=O)NO)S(C)(=O)=O [Example 44, (2R)—N-hydroxy-4-{7-[4-(2-hydroxyethyl)phenyl]-4-oxo-3,4-dihydroquinazolin-3-yl}-2-methanesulfonyl-2-methylbutanamide] | 1 (≈ 2.18 µM) | 1 (≈ 2.18 µM) | 0.125 (≈ 0.272 µM)
9 | CCOc1ccc(-c2ccc3c(=O)n(CC[C@](C)(C(=O)NO)S(C)(=O)=O)cnc3c2)cc1 [Example 46, (2R)-4-[7-(4-ethoxyphenyl)-4-oxo-3,4-dihydroquinazolin-3-yl]-N-hydroxy-2-methanesulfonyl-2-methylbutanamide] | 0.125 (≈ 0.272 µM) | 1 (≈ 2.18 µM) | < 0.03
10 | COCc1ccc(-c2ccc3c(=O)n(CC[C@](C)(C(=O)NO)S(C)(=O)=O)cnc3c2)cc1 [Example 47, (2R)—N-hydroxy-2-methanesulfonyl-4-{7-[4-(methoxymethyl)phenyl]-4-oxo-3,4-dihydroquinazolin-3-yl}-2-methylbutanamide] | 0.125 (≈ 0.272 µM) | 0.5 (≈ 1.09 µM) | 0.063 (≈ 0.137 µM)

The next lines start with the values.

Row | MIC (K. pneumoniae 1161486) [µg/mL] | MIC (P. aeruginosa PA01) [µg/mL] | MIC (E. coli 7623) [µg/mL] | Compound
11 | 1 (≈ 2.15 µM) | 16 (≈ 34.4 µM) | 0.25 (≈ 0.538 µM) | COc1ccc(-c2cc3ncn(CC[C@](C)(C(=O)NO)S(C)(=O)=O)c(=O)c3cc2F)cn1 [Example 30, (2R)-4-[6-fluoro-7-(6-methoxypyridin-3-yl)-4-oxo-3,4-dihydroquinazolin-3-yl]-N-hydroxy-2-methanesulfonyl-2-methylbutanamide]
12 | 0.25 (≈ 0.577 µM) | 2 (≈ 4.61 µM) | 0.063 (≈ 0.145 µM) | C[C@@](CCn1cnc2cc(-c3ccccc3)c(F)cc2c1=O)(C(=O)NO)S(C)(=O)=O [Example 31, (2R)-4-(6-fluoro-4-oxo-7-phenyl-3,4-dihydroquinazolin-3-yl)-N-hydroxy-2-methanesulfonyl-2-methylbutanamide]
13 | 0.5 (≈ 1.05 µM) | 4 (≈ 8.41 µM) | 0.125 (≈ 0.263 µM) | C[C@@](CCn1cnc2cc(-c3ccc4c(c3)COC4)c(F)cc2c1=O)(C(=O)NO)S(C)(=O)=O [Example 32, (2R)-4-[7-(1,3-dihydro-2-benzofuran-5-yl)-6-fluoro-4-oxo-3,4-dihydroquinazolin-3-yl]-N-hydroxy-2-methanesulfonyl-2-methylbutanamide]
14 | 0.5 (≈ 1.05 µM) | 8 (≈ 16.8 µM) | < 0.03 | CN(C)c1ccc(-c2cc3ncn(CC[C@](C)(C(=O)NO)S(C)(=O)=O)c(=O)c3cc2F)cn1 [Example 33, (2R)-4-{7-[6-(dimethylamino)pyridin-3-yl]-6-fluoro-4-oxo-3,4-dihydroquinazolin-3-yl}-N-hydroxy-2-methanesulfonyl-2-methylbutanamide]
15 | 0.25 | 4 | < 0.03 | CC(=O)OCCc1ccc(-c2cc3ncn(CC[C@](C)(C(=O)NO)S(C)(=O)=O)c(=O)c3cc2F)cc1 [Example 34, 2-(4-{6-fluoro-3-[(3R)-3-(hydroxycarbamoyl)-3-methanesulfonyl-3-methylpropyl]-4-oxo-3,4-dihydroquinazolin-7-yl}phenyl)ethyl acetate]
16 | 1 (≈ 1.87 µM) | 1 (≈ 1.87 µM) | 0.125 (≈ 0.234 µM) | COCCN(C)Cc1ccc(-c2ccc3c(=O)n(CC[C@](C)(C(=O)NO)S(C)(=O)=O)cnc3c2)c(F)c1 [Example 36, (2R)-4-[7-(2-fluoro-4-{[(2-methoxyethyl)(methyl)amino]methyl}phenyl)-4-oxo-3,4-dihydroquinazolin-3-yl]-N-hydroxy-2-methanesulfonyl-2-methylbutanamide]
17 | 1 (≈ 2.09 µM) | 1 (≈ 2.09 µM) | 0.063 (≈ 0.132 µM) | C[C@@](CCn1cnc2cc(-c3ccc(CCO)cc3F)ccc2c1=O)(C(=O)NO)S(C)(=O)=O [Example 45, (2R)-4-{7-[2-fluoro-4-(2-hydroxyethyl)phenyl]-4-oxo-3,4-dihydroquinazolin-3-yl}-N-hydroxy-2-methanesulfonyl-2-methylbutanamide]
18 | 0.125 (≈ 0.254 µM) | 1 (≈ 2.03 µM) | < 0.03 | COCCc1ccc(-c2ccc3c(=O)n(CC[C@](C)(C(=O)NO)S(C)(=O)=O)cnc3c2)c(F)c1 [Example 48, (2R)-4-{7-[2-fluoro-4-(2-methoxyethyl)phenyl]-4-oxo-3,4-dihydroquinazolin-3-yl}-N-hydroxy-2-methanesulfonyl-2-methylbutanamide]
19 | 0.5 (≈ 1.02 µM) | 2 (≈ 4.06 µM) | 0.125 (≈ 0.254 µM) | CONCc1ccc(-c2ccc3c(=O)n(CC[C@](C)(C(=O)NO)S(C)(=O)=O)cnc3c2)c(F)c1 [Example 50, (2R)-4-(7-{2-fluoro-4-[(methoxyamino)methyl]phenyl}-4-oxo-3,4-dihydroquinazolin-3-yl)-N-hydroxy-2-methanesulfonyl-2-methylbutanamide]
